Results reported in patent publication US20190062277A1, “FARNESOID X RECEPTOR AGONISTS AND USES THEREOF” (Metacrine, Inc., priority 2015, published 2019).

Legend:
[1] = target: T1, FXR (Homo sapiens, UniProt Q96RI1); assay: In Vitro FXR Assay (PGL3), luciferase reporter in transfected CV-1 cells; type: cell-based; design: plasmids XPD90Gal pCMXhFXRfl, pCMXhRXRfl+PGL3-ECRE*6-luc+CMX-YFP; expressed in transfected cells; host or cells: CV-1 cells; conditions: CV-1 cells transfected with hFXR, hRXR, PGL3-ECRE*6-luc; 18 hrs incubation; luminescence
T1 sequence (Q96RI1 1-486): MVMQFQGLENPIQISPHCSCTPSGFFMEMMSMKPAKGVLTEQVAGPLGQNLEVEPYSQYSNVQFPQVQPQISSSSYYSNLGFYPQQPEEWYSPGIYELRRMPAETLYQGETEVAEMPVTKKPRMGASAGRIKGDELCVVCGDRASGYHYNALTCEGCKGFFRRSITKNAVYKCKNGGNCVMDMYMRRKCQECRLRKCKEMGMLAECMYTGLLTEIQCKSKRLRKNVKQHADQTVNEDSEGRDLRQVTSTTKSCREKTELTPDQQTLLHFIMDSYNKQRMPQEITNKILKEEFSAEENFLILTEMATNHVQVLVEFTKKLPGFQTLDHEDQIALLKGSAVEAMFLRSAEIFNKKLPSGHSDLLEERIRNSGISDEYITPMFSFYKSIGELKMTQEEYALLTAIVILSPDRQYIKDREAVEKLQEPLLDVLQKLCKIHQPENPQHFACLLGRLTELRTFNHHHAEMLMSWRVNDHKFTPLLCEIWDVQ
T1 sequence (P19793 1-462 partner): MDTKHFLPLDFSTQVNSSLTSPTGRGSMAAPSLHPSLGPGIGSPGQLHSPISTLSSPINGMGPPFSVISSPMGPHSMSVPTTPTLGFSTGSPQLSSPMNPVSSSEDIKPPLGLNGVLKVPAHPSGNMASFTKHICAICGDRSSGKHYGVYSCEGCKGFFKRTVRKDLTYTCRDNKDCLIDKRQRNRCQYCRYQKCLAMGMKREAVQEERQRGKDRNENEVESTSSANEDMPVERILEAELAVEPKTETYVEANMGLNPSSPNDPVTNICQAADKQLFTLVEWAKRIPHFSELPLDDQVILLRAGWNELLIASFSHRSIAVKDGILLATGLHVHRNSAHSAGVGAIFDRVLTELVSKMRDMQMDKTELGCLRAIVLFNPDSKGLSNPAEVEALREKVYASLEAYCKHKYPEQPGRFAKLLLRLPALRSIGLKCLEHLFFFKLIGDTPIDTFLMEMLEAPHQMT
Procedure: Example B-1: In Vitro FXR Assay (PGL3)
CV-1 cells were seeded at a density of 2,000,000 cells in a T175 flask with DMEM+10% charcoal double-stripped FBS and incubated at 37° C. in a 5% CO2 for 18 h (0/N).
After 18 h of incubation, the medium in the T175 flask was changed with fresh DMEM+10% charcoal super-stripped serum.
To prepare the transfection reaction mixture, the transfection reagent (X-tremeGENE HP from Roche, Cat #06 366 236 001) was added in to a 1.5 mL microcentrifuge tube labelled “A” at a ratio of 1:3 (DNA in μg: transfection reagent in μL). OptiMEM medium (Life Technologies, Cat #31985-062) was added accordingly to provide a total volume of 1 mL. The transfection reaction mixture was then briefly vortexed and incubated at room temperature for 5 minutes.
In a separate 1.5 mL microcentrifuge tube labelled “B”, 100 μL OptiMEM and plasmids XPD90Gal pCMXhFXRfl, pCMXhRXRfl+PGL3-ECRE*6-luc+CMX-YFP in the ratio 2 μg: 2 μg:18 μg:3 μg were added. This microcentrifuge tube “B” was then briefly vortexed and incubated at room temperature for 5 minutes.
The total volume in tube labelled “A” was then transferred in to tube labelled “B.” The mixture was then briefly vortexed and the transfection:DNA complex was then incubated for about 15-20 minutes at room temperature.
Following incubation, the transfection reagent/DNA mixture complex was then added to cells in the T175 flask and the cells were incubated at […] (0/N) at 37° C. in 5% CO2.
In a 96 well plate, a half logarithmic serial dilution was prepared. OptiMEM was used as the diluent. Using any of one of the compounds described herein, a compound stock solution of 10 mM was prepared. An initial 1:100 dilution was made into the first well for a final concentration of 100 μM. The final concentrations in the 96-well plate was prepared by using a multichannel pipette to transfer 5 μL of the diluted compound to 384-well plate in quadruplicate.
Cells in T175 flask were trypsinized and cells were resuspending in 40 mL phenol red free DMEM+10% charcoal super-stripped FBS. Typically, one T175 flask was sufficient to seed two 384 well plates. CV-1 cells were seeded at 45 μL cell suspension/well using a multi-channel pipet or a 384 multidrop dispenser. The cells were then incubated for 18 hrs, overnight.
After removing the plates from the incubator, the medium was flicked out of plate and 384 well plate was turned upside down onto paper towel. The remaining medium was gently tapped out. 15 μL lysis buffer was then added to each well using a multichannel pipet or a 384 well multi-drop dispenser. After incubation for 10 minutes at room temperature on shaker, 30 μL Luciferase buffer was added to each well. Luminescence counts were taken immediately using the Perkin Elmer Envision.
The ability of the compounds disclosed herein to […] FXR activity was quantified and the respective EC50 value was determined. Fex=fexaramine.

[2] = target: T1, FXR; assay: In Vitro FXR Assay (TK), luciferase reporter in transfected CV-1 cells; type: cell-based; design: expressed in transfected cells; host or cells: CV-1 cells; conditions: CV-1 cells transfected with hFXR, hRXR, TK-ECRE-luc; 18 hrs incubation; luminescence; maximum efficacy <25% of Fexaramine control also classified '+'
Procedure: Example B-2: In Vitro FXR Assay (TK)
CV-1 cells were seeded at a density of 2,000,000 cells in a T175 flask with DMEM+10% charcoal double-stripped FBS and incubated at 37° C. in 5% CO2 for 18 h (0/N).
After 18 h of incubation, the medium in the T175 flask was changed with fresh DMEM+10% charcoal super-stripped serum. In a polypropylene tube, 2500 μL OptiMEM (Life Technologies, Cat #31985-062) was combined with expression plasmids for hFXR, hRXR, TK-ECRE-luc and pCMX-YFP. The tube was then briefly vortexed and incubated at room temperature for 5 minutes. Transfection reagent (X-tremeGENE HP from Roche, Cat #06 366 236 001) was added to the OptiMEM/plasmid mixture vortexed and incubated at room temperature for 20 minutes. Following incubation, the transfection reagent/DNA mixture complex was added to cells in the T175 flask and the cells were incubated at 37° C. in 5% CO2 for 18 h (O/N).
Compounds were serially diluted in DMSO and added to transfected CV-1 cells. The cells were then incubated for 18 hrs. The next day cells were lysed and examined for luminescence.

| SMILES | Cmpd/Fex (ratio of the EC50 for the test compound relative to the EC50 of the Fexaramine control) [1] | EC50 [2] |
| --- | --- | --- |
| CN(C)c1ccc(N2CCC(CN(C(=O)C3CCCCC3)c3cccc(/C=C/C(=O)O)c3)CC2)cc1 [Compound 6, (E)-3-(3-(N-((1-(4-(Dimethylamino)phenyl)piperidin-4-yl)methyl)cyclohexanecarboxamido)phenyl)acrylic acid] | + (‘+’ means Cmpd/Fex >100) | ≥ 10000 nM |
| COC(=O)/C=C/c1cccc(N(C[C@H]2CCN(c3ccc(N(C)C)cc3)C2)C(=O)C2CCCCC2)c1 [Compound 4, (S,E)-Methyl 3-(3-(N-((1-(4-(dimethylamino)phenyl)pyrrolidin-3-yl)methyl)cyclohexanecarboxamido)phenyl) acrylate] | ++ (‘++’ means Cmpd/Fex >10 & <100) | 1000 to 10000 nM |
| COc1ccc([C@H]2CC[C@H](CN(C(=O)CC(C)(C)C)c3cccc(/C=C/C(=O)OC(C)C)c3)CC2)cc1C [Compound 11, trans-(E)-Isopropyl 3-(3-(N-((4-(4-methoxy-3-methylphenyl)cyclohexyl)methyl)-3,3-dimethylbutanamido)phenyl)acrylate] |  | ≤ 1000 nM |
| COC(=O)/C=C/c1cccc(N(C[C@@H]2CCN(c3ccc(N(C)C)cc3)C2)C(=O)C2CCCCC2)c1 [Compound 3, (R,E)-Methyl 3-(3-(N-((1-(4-(dimethylamino)phenyl)pyrrolidin-3-yl)methyl)cyclohexanecarboxamido)phenyl) acrylate] | + (‘+’ means Cmpd/Fex >100) | ≥ 10000 nM |
| COC(=O)/C=C/c1cccc(N(CC2CCC(c3ccc(Cl)cc3)CC2)C(=O)C2CCCCC2)c1 (stereo not drawn) [Compound 7, (E)-Methyl 3-(3-(N-((4-(4-chlorophenyl)cyclohexyl)methyl)cyclohexanecarboxamido)phenyl)acrylate] | +++ (‘+++’ means Cmpd/Fex <10) | ≤ 1000 nM |
| COC(=O)/C=C/c1cccc(N(Cc2ccc(-c3ccc(N(C)C)cc3)nc2)C(=O)C2CCCCC2)c1 [Compound 1, (E)-Methyl 3-(3-(N-((6-(4-(dimethylamino)phenyl)pyridin-3-yl)methyl)cyclohexanecarboxamido)phenyl)acrylate] | +++ (‘+++’ means Cmpd/Fex <10) | 1000 to 10000 nM |
| COC(=O)/C=C/c1cccc(N(C[C@H]2CC[C@H](c3ccc(OC)c(C)c3)CC2)C(=O)[C@H]2CC[C@H](O)CC2)c1 [Compound 14, trans-(E)-Methyl 3-(3-(trans-4-hydroxy-N-((4-(4-methoxy-3-methylphenyl)cyclohexyl)methyl)cyclohexanecarboxamido)phenyl)acrylate] |  | ≤ 1000 nM |
| COC(=O)/C=C/c1cccc(N(C[C@H]2CC[C@H](c3ccc(OC)c(C)c3)CC2)C(=O)CC(C)(C)C)c1 [Compound 9, trans-(E)-Methyl 3-(3-(N-((4-(4-methoxy-3-methylphenyl)cyclohexyl)methyl)-3,3-dimethylbutanamido)phenyl)acrylate] |  | ≤ 1000 nM |
| COc1ccc([C@H]2CC[C@H](CN(C(=O)C3CCCCC3)c3cccc(/C=C/C(=O)OC(C)C)c3)CC2)cc1C [Compound 10, trans-(E)-Isopropyl 3-(3-(N-((4-(4-methoxy-3-methylphenyl)cyclohexyl)methyl)cyclohexanecarboxamido)phenyl)acrylate] |  | ≤ 1000 nM |
| COC(=O)/C=C/c1cccc(N(CC2CCN(c3ccc(C)cc3)CC2)C(=O)C2CCCCC2)c1 [Compound 5, (E)-Methyl 3-(3-(N-((1-(p-tolyl)piperidin-4-yl)methyl)cyclohexanecarboxamido)phenyl)acrylate] | +++ (‘+++’ means Cmpd/Fex <10) | ≤ 1000 nM |
| COC(=O)/C=C/c1cccc(N(C[C@H]2CC[C@@H](c3ccc(OC)c(C)c3)CC2)C(=O)C2CCCCC2)c1 [Compound 12, cis-(E)-Methyl 3-(3-(N-((4-(4-methoxy-3-methylphenyl)cyclohexyl)methyl)cyclohexanecarboxamido)phenyl)acrylate] |  | ≥ 10000 nM |
| COC(=O)/C=C/c1cccc(N(C[C@H]2CC[C@H](c3ccc(OC)c(C)c3)CC2)C(=O)C2CCCCC2)c1 [Compound 8, trans-(E)-Methyl 3-(3-(N-((4-(4-methoxy-3-methylphenyl)cyclohexyl)methyl)cyclohexanecarboxamido)phenyl)acrylate] |  | ≤ 1000 nM |
| COC(=O)/C=C/c1cccc(N(CC2CN(c3ccc(N(C)C)cc3)C2)C(=O)C2CCCCC2)c1 [Compound 4.1, (E)-Methyl 3-(3-(N-((1-(4-(dimethylamino)phenyl)azetidin-3-yl)methyl)cyclohexanecarboxamido)phenyl) acrylate] |  | ≥ 10000 nM |
| COc1ccc([C@H]2CC[C@H](CN(C(=O)C3CCCCC3)c3cccc(/C=C/C(=O)O)c3)CC2)cc1C [Compound 6.1, trans-(E)-3-(3-(N-((4-(4-Methoxy-3-methylphenyl)cyclohexyl)methyl)cyclohexanecarboxamido)phenyl)acrylic acid] |  | 1000 to 10000 nM |
| COc1ccc([C@H]2CC[C@H](CN(c3cccc(/C=C/C(=O)OC(C)C)c3)C(=O)[C@H]3CC[C@H](O)CC3)CC2)cc1C [Compound 13, trans-(E)-Isopropyl 3-(3-(trans-4-hydroxy-N-((4-(4-methoxy-3-methylphenyl)cyclohexyl)methyl)cyclohexanecarboxamido)phenyl)acrylate] |  | ≤ 1000 nM |
